What was measured:
human Mas receptor [1] = target: T1, human Mas receptor (Homo sapiens, UniProt P04201); assay: cAMP Dynamic2 HTRF assay, HEK293 cells stably expressing human Mas receptor; assay type: cell-based
T1 construct: expressed in transfected cells; host or cells: HEK293 (ATCC CRL-1573)
T1 sequence (P04201 1-325): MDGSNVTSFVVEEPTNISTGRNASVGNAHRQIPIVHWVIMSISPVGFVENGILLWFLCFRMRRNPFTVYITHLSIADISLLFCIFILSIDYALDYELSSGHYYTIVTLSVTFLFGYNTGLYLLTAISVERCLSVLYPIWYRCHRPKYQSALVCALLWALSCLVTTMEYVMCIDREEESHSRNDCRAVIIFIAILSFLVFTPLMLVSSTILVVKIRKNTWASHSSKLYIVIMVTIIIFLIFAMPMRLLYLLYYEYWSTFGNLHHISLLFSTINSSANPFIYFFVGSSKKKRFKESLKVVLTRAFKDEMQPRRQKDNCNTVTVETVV
Protocol: cAMP accumulation in HEK293 cells stably expressing human or rat Mas receptors was determined by the 384 well cAMP Dynamic2 Homogenous Time-Resolved Fluorescence (HTRF®) assay (CisBio Cat#62AM4PEB) following the manufacturer's protocol. Briefly, cells were plated at 30,000 or 1000 cells per well in 5 μL stimulation buffer (PBS containing 500 μM IBMX and 0.1% bovine serum albumin), 5 μL of Mas compounds diluted in PBS were added to each well and serial diluted cAMP standards were also added to corresponding wells at this step. For detecting […] activities, 10 μM forskolin was included with the compounds for a final concentration of 5 μM at the stimulation step. Following 1 h stimulation at room temperature, d2-labeled cAMP and anti-cAMP cryptate conjugate diluted in detection buffer (included in the kit) were added to cells sequentially at 5 μl per well. The plates were incubated further for 1 h at room temperature. Ratiometic measurements of fluorescence emission at 665 nm and 620 nm were obtained by Pherastar fluorometer (BMG Labtech) and cAMP levels in each well were calculated according to the standard curves on each plate. IC50 values were obtained by fitting data to a nonlinear curve-fitting program (GraphPad Software, Inc., La Jolla Calif.).

human Mas receptor [2] = target: T1, human Mas receptor; assay: Ca2+ measurements by FLIPR assay, HEK293 cells stably expressing human Mas receptors; assay type: cell-based; settings: HEK293 cells stably expressing the human Mas receptor
Protocol: HEK293 cells stably expressing human Mas receptors were monitored for changes in intracellular Ca^2+ using a FLIPR-384 (Molecular Devices, Sunnyvale, Calif.). Cells were seeded into black-walled clear-base 384-well plates at a density of 2×10^4 cells per well and incubated with Hank's Balanced Salt Solution (HBSS) containing 20 mM HEPES pH 7.4, 2 μM Calcium 3 dye (Molecular Devices Corporation, Sunnyvale, Calif.) and 2.5 mM probenecid at 37° C. for 60 min. Cells were washed with HBSS containing 20 mM HEPES, pH 7.4 and 2.5 mM probenecid and the plates were then placed into the FLIPR instrument to monitor cell fluorescence before and after the addition of the agonists at different concentrations.

control HEK293 cells = assay: HTRF IP1 assay in control HEK293 cells; assay type: cell-based; settings: IP assay
Excerpt: Human and rat Mas receptors were either transiently or stably expressed in HEK293 cells. For transient transfections, human or rat Mas in pHM6 vector were transfected into HEK293 cells using Lipofectamine® (Invitrogen #18324-012). HEK293 cells transfected with empty pHM6 vector were used as a control. For generation of stable cell lines, cDNA expression plasmids encoding human or rat Mas genes and the neo^r gene were transfected into HEK293 cells (ATCC# CRL-1573) using Lipofectamine® (Invitrogen) according to the manufacturer's instructions. Stable receptor expressing pools were then generated over 3 weeks by standard techniques in the presence of 500 μg/mL Geneticin® (Gibco). Individual receptor stable pools were dilution cloned using standard techniques and clones were comparatively evaluated in inositol phosphate accumulation assays. Preferred clones were banked and cultured as needed. HEK293 cells were used as controls. The 384 well IP-One HTRF® Assay (Cisbio #62P1APEJ) was performed as described by the manufacturer's protocol. Cells were plated in at 100,000 cells per well in 15 μL DMEM (Gibco #11960) and incubated in a CO2 incubator at 37° C. for 2 h. […] IP1 levels in each well were calculated according to the standard curves on each plate. […]

Male Sprague Dawley rats = assay: Rat model of transient cerebral ischemia/stroke; assay type: in vivo; settings: 3 mg/kg bolus i.v. 1 min prior to MCA occlusion or at the onset of reperfusion
Protocol: Rats were anesthetized with pentobarbital (70 mg/kg). Normal body temperature was maintained by placing the animals on heating pads. A midline neck incision was made and soft tissues were pulled apart, and the external carotid artery (ECA), and internal carotid artery (ICA) were exposed. […] An incision was made around the left hind leg area and exposing the femoral vein. A 30-mm length of 3-0 monofilament nylon suture coated with 0.1% poly-lysine was inserted into the right ICA lumen through a small incision at about 4-mm proximal to the carotid bifurcation. The filament was advanced 18-22 mm from the start of the carotid bifurcation to block the origin of the right middle cerebral artery (MCA) for the ischemia time designed. Reperfusion was obtained by pulling out the occluding filament at the end of the MCA. After occlusion the tissues around the neck were closed with 4-0 silk suture (Ethicon, 1677G). The skin around the neck was closed with metal clips and the cutting area was treated with iodine. At the end of the reperfusion period (e.g. 24 h) the rats were anesthetized with Nembutal (70 mg/kg) and the brains were removed. […] Whole area (WA) and infarct area (IA) were measured for each coronal section. Brain damage was assessed by IA/(IA+WA). […]

Compound | IC50 (human Mas receptor [1]; cAMP assay with forskolin, read-out: Gi coupling IC50) | forskolin stimulated cAMP levels (Mas-Gi activity) (human Mas receptor [1]; cells stably expressing human or rat Mas receptor, 5 μM forskolin) | intracellular Ca2+ (human Mas receptor [2]) | effects in control HEK293 cells (control HEK293 cells) | brain damage associated with transient ischemic injury (Male Sprague Dawley rats)
COc1cc([N+](=O)[O-])ccc1S(=O)(=O)N1CC(CN2CCN(c3ccccn3)CC2)C(c2cccc(F)c2)C1 (centres unmarked) [AR234960] | 719 ± 12 nM | dose dependent reduction | significant increase | There were detected effects | 
NC(=O)[C@H](CO)NCc1ccc(C(=O)Nc2ccc(Cl)cc2N2CCN(CCC(F)(F)F)CC2)c(F)c1F [Compound 170, (S)-4-((1-Amino-3-hydroxy-1-oxopropan-2-ylamino)methyl)-N-(4-chloro-2-(4-(3,3,3-trifluoropropyl)piperazin-1-yl)phenyl)-2,3-difluorobenzamide] |  |  |  |  | reduced brain damage

From US20140309192A1, “MODULATORS OF THE G PROTEIN-COUPLED MAS RECEPTOR AND THE TREATMENT OF DISORDERS RELATED THERETO” (ARENA PHARMACEUTICALS, INC., priority 2011, published 2014)
